Results on 1 compound are retold here after patent publication US6303596A, “Use of taurolidine for treatment of leukemias” (priority 2000, dated 2001).

The structures appear in SMILES notation.

For this data set, the system named is Lymphocytes. Description: TUNEL flow cytometry, lymphocytes in PBMC, culture medium. The format is cell-based, human. To be noted: 6 h. The procedure: FIG. 14A and FIG. 14B are terminal deoxytransferase-mediated deoxyuridine-triphosphate-biotin nick end labeling assay (TUNEL) analyses of control cells and taurolidine-treated PBMC, respectively. Cells were incubated with 100 μg/ml taurolidine for six hours and processed for TUNEL analysis as given below. Parallel samples were stained with FITC-conjugated anti-CD14 and propidium iodide (PI) as described below. Ten thousand events were recorded per sample. TUNEL signal (x-axis) is a measure of DNA fragmentation, which FSC (y-axis) is related to cell size. TUNEL-negative lymphocytes are bounded by the rectangle R1, while TUNEL-negative monocytes (CD14 positive cells) are bounded by the rectangle R2. The vertical line indicates demarcation between TUNEL-negative and TUNEL-positive cells. There were minimal numbers of PI-positive cells in the six hour samples (see Table IV).
In the second method, DNA fragmentation was detected via TUNEL assay according to the manufacturer's instructions. With this methodology, 2×10^6 cells were fixed with 2% paraformaldehyde, permeabilized with 0.1% Triton X-100/0.1% citrate, incubated at 37° C. with terminal deoxynucleotidyl transferase and FITC-dUTP, rinsed and analyzed by flow cytometry. Enhanced FITC signal indicates apoptosis-specific DNA fragmentation. Gavriali, et al, "Identification of programmed cell death in situ via specific labeling of nuclear DNA fragmentation," J Cell Biol 119:493 (1992). Parallel aliquots of unfixed cells were treated with PI and FITC-conjugated anti-CD14 and analyzed by flow cytometry, in order to identify cells with permeable cell membranes (since PI binds to DNA but is excluded from cells with intact plasma membranes) and also to determine the cell-specificity of the apoptotic signal.
A Becton-Dickinson FACSCalibur instrument was used for flow cytometric analysis of cells. Assessment of cell diameter (forward scatter; FCS) and granularity (side scatter; SSC).was carried out on unfixed cells. Discrimination between lymphocytes and monocytes was made possible by their characteristic differences in FSC and SSC, and confirmed by staining monocytes with FITC-labeled anti-CD14 antibodies and lymphocytes with a combination of FITC-conjugated anti-CD3 and PE-conjugated anti-CD19. After incubation with taurolidine (with or without concomitant LPS treatment), cells were rinsed twice in phosphate-buffered saline containing 0.1% bovine serum albumin (PBSA) and 1×10^6 cells were resuspended in 0.1 ml PBSA. After 5 μl FITC-conjugated anti-CD14 was added, cells were incubated in the dark on ice for 15 minutes and then centrifuged at 250×g. Cells were resuspended in 500 μl PBSA containing 5 μg/ml PI and subjected to flow cytometry.
Consequently, TUNEL analysis was performed on PBMC at 3, 6, or 24 hours after treatment with 25 to 100 μg/ml taurolidine. Aliquots of harvested cells were also labeled with FITC-conjugated anti-CD14 antibodies and PI, which allowed identification of monocytes (CD14-positive cells) and cells with damaged cell membranes (PI-positive cells). […] Thus, nearly 75% of the monocytes were TUNEL-positive following treatment with 100 μg/ml taurolidine for six hours. Confirmation that the TUNEL-positive cells were monocytes was obtained by staining with FITC-conjugated anti-CD14.
^a Analysis by flow cytometry after staining cells with FITC-conjugated
anti-CD14 and PI, and processing for TUNEL. Data are mean ± SD of two
^b Percent of cells present in the TUNEL-negative region in control
(In general: A flow cytometer gives signals particle by particle.)

Regarding `O=S1(=O)CCN(CN2CCS(=O)(=O)NC2)CN1` [taurolidine, 4,4'-methylenebis(perhydro-1,2,4-thiadiazin 1,1-dioxide)], the viability at 25 µg/mL (Homo sapiens, Lymphocyte, lymphocytes, 25 μg/ml, percent of control, read-out: % TUNEL-Negative) worked out at 100 ± 7%. Further, under “Homo sapiens, Lymphocyte, lymphocytes, 50 μg/ml, percent of control, read-out: % TUNEL-Negative”, the viability at 50 µg/mL worked out at 99.8 ± 3.4%. For the same compound, the viability at 100 µg/mL (Homo sapiens, Lymphocyte, lymphocytes, 100 μg/ml, percent of control, read-out: % TUNEL-Negative) was 102 ± 3.1%. Also, for the setting “lymphocytes, up to 100 μg/ml taurolidine”, the “cells remaining TUNEL-negative” value is given as approximately 100%. Also, for the setting “up to 100 μg/ml taurolidine, culture medium”, the apoptosis in lymphocytes entry is “did not induce detectable apoptosis”.
